{"source": "patent US7696218B2", "about": "“Substituted 1,3-dialkyl-2,4-dioxo-6-(arylamino)-1,2,3,4-tetrahydropyrimidine-5-hydroxamic acid inhibitors of MAPK/ERK kinase” (Takeda San Diego, Inc., priority 2006, dated 2010)", "data": [{"target": "T1, MEK2 (Homo sapiens, UniProt P36507, S222E/S226D)", "T1 construct": "6-histidine tag (N); made in house; host or cells: Spodoptera frugiperda Sf9 (baculovirus) for MEK2; E. coli for ERK1", "T1 sequence (P36507 with tags, fused parts or gaps S222E/S226D)": "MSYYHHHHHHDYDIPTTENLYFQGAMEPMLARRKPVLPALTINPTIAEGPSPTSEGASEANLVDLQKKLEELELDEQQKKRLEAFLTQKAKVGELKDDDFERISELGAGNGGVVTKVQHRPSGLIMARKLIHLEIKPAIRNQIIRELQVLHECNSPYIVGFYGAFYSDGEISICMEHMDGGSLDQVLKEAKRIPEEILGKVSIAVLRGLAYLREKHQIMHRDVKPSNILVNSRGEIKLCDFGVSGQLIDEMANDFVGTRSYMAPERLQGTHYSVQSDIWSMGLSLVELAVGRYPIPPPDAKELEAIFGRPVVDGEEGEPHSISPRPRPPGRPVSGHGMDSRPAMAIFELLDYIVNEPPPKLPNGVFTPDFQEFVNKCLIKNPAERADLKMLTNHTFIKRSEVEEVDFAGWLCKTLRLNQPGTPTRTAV", "experiment": "MEK2 inhibition assay, fluorescence polarization with IMAP beads (ERK1 / FI-Erktide substrate)", "assay_type": "biochemical", "conditions": "4 nM MEK2, 25 nM ERK1, 400 μM ATP, 500 nM FI-Erktide, 1% DMSO, 22 min at room temperature; values given as ranges; read-out: IC50 of Exemplified Compounds Against MEK2", "excerpt": "For MEK2, DNA encoding residues 1-400 (S222E/S226D) of the full-length sequence of the human enzyme may be amplified by PCR and cloned into pFastbac (Invitrogen), which incorporates a 6-histidine tag at the N-terminus. The two mutations, S222E and S226D, may be obtained by quick change PCR. SEQ ID NO: 3 corresponds to residues 1-400 with mutations S222E/S226D, and with the N-terminal 6-histidine tag and SEQ ID NO: 4 is the DNA sequence that was used to encode SEQ ID NO: 3.\nRecombinant baculovirus incorporating the MEK1 and MEK2 constructs may be generated by transposition using the Bac-to-Bac system (Invitrogen). High-titer viral stocks may be generated by infection of Spodoptera frugiperda Sf9 cells; the expression of recombinant protein may be carried out by infection of Spodoptera frugiperda Sf9 (Invitrogen) in 5L Wave Bioreactors (Wave Biotech).\nRecombinant protein may be isolated from cellular extracts by passage over ProBond resin (Invitrogen). Partially purified extracts of all MEK1 may then be further purified by high pressure liquid chromatography over a SEC2000 gel filtration resin. The purity of MEK1 and MEK2 proteins may be determined on denaturing SDS-PAGE gel. Purified MEK1 and MEK2 may then be concentrated to a final concentration of 3.4 mg/ml and 5.4 mg/ml, respectively. The proteins may be either stored at −78° C. in a buffer containing 50 mM TRIS-HCl pH 7.6, 250 mM NaCl, 0.1 mM EDTA and 0.125 mM TCEP or at −20° C. in the presence of glycerol (final concentration of glycerol at 50%).\nThe inhibitory properties of compounds relative to MEK1 or MEK2 may be determined using a black 384-well-plate format under the following reaction conditions: 50 mM HEPES pH 7.3, 10 mM NaCl, 10 mM MgCl2, 0.01% Brij35, 1 nM MEK1 or 4 nM MEK2, 25 nM ERK1, 400 μM ATP, 500 nM IPTTPITTYFFFK-5FAM-COOH (FI-Erktide), and 1% DMSO. Reaction product is determined quantitatively by fluorescent polarization using progressive IMAP beads from Molecular Devices.\nThe assay reaction may be initiated as follows: 2 μl of the mixture of 1.5 μM FI-Erktide and 75 nM ERK with 2 μl of inhibitor (2 fold serial dilutions for 11 data points for each inhibitor) containing 3% DMSO were added to each well of the plate, followed by the addition of 2 μl of the mixture of 3 nM MEK1 or 12 nM MEK2 and 1200 μM ATP to initiate the reaction (final enzyme concentration was 1 nM for MEK1 or 4 nM for MEK2). The reaction mixture may then be incubated at room temperature for 22 min, and quenched and developed by addition of 20 μl of 1:200 dilution of progressive IMAP beads (Molecular Devices) in 80% buffer A, 20% bufferB and 0.003% Tween 20. Fluorescence polarization of the resulting reaction mixtures may be measured after a 1 hour incubation at room temperature.\nIC50 values may be calculated by non-linear curve fitting of the compound concentrations and fluorescence polarization signal to the standard IC50 equation.", "units": {"IC50": "µM"}, "values": [{"smiles": "Cn1c(Nc2ccc(I)cc2F)c(C(=O)NOCCCO)c(=O)n(C)c1=O", "note": "[Example 29, 6-(2-Fluoro-4-iodophenylamino)-N-(3-hydroxypropoxy)-1,3-dimethyl-2,4-dioxo-1,2,3,4-tetrahydropyrimidine-5-carboxamide]", "IC50": "0.501 to 2.5"}, {"smiles": "CONC(=O)c1c(Nc2ccc(I)cc2F)n(C)c(=O)n(C)c1=O", "note": "[Example 5, 6-(2-Fluoro-4-iodophenylamino)-N-methoxy-1,3-dimethyl-2,4-dioxo-1,2,3,4-tetrahydropyrimidine-5-carboxamide]", "IC50": "0.501 to 2.5"}, {"smiles": "Cn1c(Nc2ccc(I)cc2F)c(C(=O)NOCCO)c(=O)n(C)c1=O", "note": "[Example 3, 6-(2-fluoro-4-iodophenylamino)-N-(2-hydroxyethoxy)-1,3-dimethyl-2,4-dioxo-1,2,3,4-tetrahydropyrimidine-5-carboxamide]", "IC50": "≤ 0.5"}, {"smiles": "Cn1c(Nc2ccc(I)c(F)c2F)c(C(=O)NOC[C@H](O)CO)c(=O)n(C)c1=O", "note": "[Example 36, (R)-6-(2,3-Difluoro-4-iodophenylamino)-N-(2,3-dihydroxypropoxy)-1,3-dimethyl-2,4-dioxo-1,2,3,4-tetrahydropyrimidine-5-carboxamide]", "IC50": "0.501 to 2.5"}, {"smiles": "Cn1c(Nc2ccc(I)cc2F)c(C(=O)NCCO)c(=O)n(C)c1=O", "note": "[Example 55, 6-(2-Fluoro-4-iodophenylamino)-N-(2-hydroxyethyl)-1,3-dimethyl-2,4-dioxo-1,2,3,4-tetrahydropyrimidine-5-carboxamide]", "IC50": "0.501 to 2.5"}, {"smiles": "Cn1c(Nc2ccc(I)cc2F)c(C(=O)NO)c(=O)n(C)c1=O", "note": "[Example 6, 6-(2-Fluoro-4-iodophenylamino)-N-hydroxy-1,3-dimethyl-2,4-dioxo-1,2,3,4-tetrahydropyrimidine-5-carboxamide]", "IC50": "≤ 0.5"}, {"smiles": "Cn1c(Nc2ccc(Br)cc2F)c(C(N)=O)c(=O)n(C)c1=O", "note": "[Example 19, 6-(4-Bromo-2-fluorophenylamino)-1,3-dimethyl-2,4-dioxo-1,2,3,4-tetrahydropyrimidine-5-carboxamide]", "IC50": "2.5 to 25"}, {"smiles": "Cc1cc(I)ccc1Nc1c(C(=O)NOCCO)c(=O)n(C)c(=O)n1C", "note": "[Example 35, N-(2-Hydroxyethoxy)-6-(4-iodo-2-methylphenylamino)-1,3-dimethyl-2,4-dioxo-1,2,3,4-tetrahydropyrimidine-5-carboxamide]", "IC50": "≤ 0.5"}, {"smiles": "Cn1c(Nc2ccc(I)cc2F)c(C(=O)CO)c(=O)n(C)c1=O", "note": "[Example 15, 6-(2-Fluoro-4-iodophenylamino)-5-(2-hydroxyacetyl)-1,3-dimethylpyrimidine-2,4(1H,3H)-dione]", "IC50": "0.501 to 2.5"}, {"smiles": "Cn1c(Nc2ccc(I)cc2F)c(C(N)=O)c(=O)n(C)c1=O", "note": "[Example 16, 6-(2-Fluoro-4-iodophenylamino)-1,3-dimethyl-2,4-dioxo-1,2,3,4-tetrahydropyrimidine-5-carboxamide]", "IC50": "≤ 0.5"}, {"smiles": "Cn1c(Nc2ccc(I)cc2F)c(C(=O)NCCN2CCCC2)c(=O)n(C)c1=O", "note": "[Example 33, 6-(2-Fluoro-4-iodophenylamino)-1,3-dimethyl-2,4-dioxo-N-(2-(pyrrolidin-1-yl)ethyl)-1,2,3,4-tetrahydropyrimidine-5-carboxamide]", "IC50": "2.5 to 25"}, {"smiles": "Cn1c(Nc2ccc(I)cc2Cl)c(C(=O)NOC[C@@H](O)CO)c(=O)n(C)c1=O", "note": "[Example 39, (S)-6-(2-chloro-4-iodophenylamino)-N-(2,3-dihydroxypropoxy)-1,3-dimethyl-2,4-dioxo-1,2,3,4-tetrahydropyrimidine-5-carboxamide]", "IC50": "≤ 0.5"}, {"smiles": "Cn1c(Nc2cc(F)c(I)cc2F)c(C(=O)NOC[C@H](O)CO)c(=O)n(C)c1=O", "note": "[Example 40, (R)-6-(2,5-Difluoro-4-iodophenylamino)-N-(2,3-dihydroxypropoxy)-1,3-dimethyl-2,4-dioxo-1,2,3,4-tetrahydropyrimidine-5-carboxamide]", "IC50": "> 25"}, {"smiles": "Cn1c(Nc2ccc(I)cc2F)c(C(=O)NOC[C@@H](O)CCO)c(=O)n(C)c1=O", "note": "[Example 57, 6-(2-Fluoro-4-iodo-phenylamino)-1,3-dimethyl-2,4-dioxo-1,2,3,4-tetrahydropyrimidine-5-carboxylic acid ((S)-2,4-dihydroxy-butoxy)-amide]", "IC50": "≤ 0.5"}, {"smiles": "Cn1c(Nc2ccc(Br)cc2Cl)c(C(N)=O)c(=O)n(C)c1=O", "note": "[Example 18, 6-(4-Bromo-2-chlorophenylamino)-1,3-dimethyl-2,4-dioxo-1,2,3,4-tetrahydropyrimidine-5-carboxamide]", "IC50": "2.5 to 25"}, {"smiles": "Cn1c(Nc2ccc(I)cc2Cl)c(C(=O)NOCCO)c(=O)n(C)c1=O", "note": "[Example 25, 6-(2-chloro-4-iodophenylamino)-N-(2-hydroxyethoxy)-1,3-dimethyl-2,4-dioxo-1,2,3,4-tetrahydropyrimidine-5-carboxamide]", "IC50": "≤ 0.5"}, {"smiles": "Cn1c(Nc2ccc(I)cc2F)c(C(=O)NOC[C@@H](O)CO)c(=O)n(C)c1=O", "note": "[Example 37, (S)-N-(2,3-Dihydroxypropoxy)-6-(2-fluoro-4-iodophenylamino)-1,3-dimethyl-2,4-dioxo-1,2,3,4-tetrahydropyrimidine-5-carboxamide]", "IC50": "≤ 0.5"}, {"smiles": "Cn1c(Nc2ccc(I)cc2F)c(C(=O)C(=O)O)c(=O)n(C)c1=O", "note": "[Example 31, 2-(6-(2-Fluoro-4-iodophenylamino)-1,3-dimethyl-2,4-dioxo-1,2,3,4-tetrahydropyrimidin-5-yl)-2-oxoacetic acid]", "IC50": "> 25"}, {"smiles": "Cc1cc(I)ccc1Nc1c(C(=O)NOC[C@H](O)CO)c(=O)n(C)c(=O)n1C", "note": "[Example 38, (R)-N-(2,3-Dihydroxypropoxy)-6-(4-iodo-2-methylphenylamino)-1,3-dimethyl-2,4-dioxo-1,2,3,4-tetrahydropyrimidine-5-carboxamide]", "IC50": "≤ 0.5"}, {"smiles": "CCc1cc(Nc2c(C(=O)NOCCO)c(=O)n(C)c(=O)n2C)ccc1I", "note": "[Example 41, 6-(3-Ethyl-4-iodophenylamino)-N-(2-hydroxyethoxy)-1,3-dimethyl-2,4-dioxo-1,2,3,4-tetrahydropyrimidine-5-carboxamide]", "IC50": "> 25"}, {"smiles": "CN(C)NC(=O)c1c(Nc2ccc(I)cc2F)n(C)c(=O)n(C)c1=O", "note": "[Example 45, 6-(2-Fluoro-4-iodophenylamino)-N′,N′,1,3-tetramethyl-2,4-dioxo-1,2,3,4-tetrahydropyrimidine-5-carbohydrazide]", "IC50": "0.501 to 2.5"}, {"smiles": "COCCOCC(=O)c1c(Nc2ccc(I)cc2F)n(C)c(=O)n(C)c1=O", "note": "[Example 13, 6-(2-Fluoro-4-iodophenylamino)-5-(2-(2-methoxyethoxy)acetyl)-1,3-dimethylpyrimidine-2,4(1H,3H)-dione]", "IC50": "2.5 to 25"}, {"smiles": "Cc1cc(I)ccc1Nc1c(C(N)=O)c(=O)n(C)c(=O)n1C", "note": "[Example 17, 6-(4-Iodo-2-methylphenylamino)-1,3-dimethyl-2,4-dioxo-1,2,3,4-tetrahydropyrimidine-5-carboxamide]", "IC50": "0.501 to 2.5"}, {"smiles": "CCn1c(Nc2ccc(I)cc2F)c(C(=O)NOCCO)c(=O)n(C)c1=O", "note": "[Example 51, 1-Ethyl-6-(2-fluoro-4-iodophenylamino)-N-(2-hydroxyethoxy)-3-methyl-2,4-dioxo-1,2,3,4-tetrahydropyrimidine-5-carboxamide]", "IC50": "> 25"}, {"smiles": "Cn1c(Nc2ccc(I)cc2F)c(C(=O)NOCC[C@H](O)CO)c(=O)n(C)c1=O", "note": "[Example 34, (S)-N-(3,4-Dihydroxybutoxy)-6-(2-fluoro-4-iodophenylamino)-1,3-dimethyl-2,4-dioxo-1,2,3,4-tetrahydropyrimidine-5-carboxamide]", "IC50": "2.5 to 25"}, {"smiles": "Cn1c(Nc2ccc(I)cc2F)c(C(=O)NN)c(=O)n(C)c1=O", "note": "[Example 9, 6-(2-Fluoro-4-iodophenylamino)-1,3-dimethyl-2,4-dioxo-1,2,3,4-tetrahydropyrimidine-5-carbohydrazide]", "IC50": "≤ 0.5"}, {"smiles": "Cn1c(Nc2ccc(I)cc2F)c(C(=O)c2ccco2)c(=O)n(C)c1=O", "note": "[Example 11, 6-(2-Fluoro-4-iodophenylamino)-5-(furan-2-carbonyl)-1,3-dimethylpyrimidine-2,4(1H,3H)-dione]", "IC50": "2.5 to 25"}]}]}
